Measurements from US6713056B1, “Combined preparation for the treatment of neoplasic diseases or of infectious diseases” (I.D.M. Immuno-Designed Molecules, priority 1998, dated 2004).

What was measured:
[1] = test system: human carcinoma solid tumors; experiment: Nude mice with human carcinoma solid tumors: cytotoxic drugs, then activated human macrophages, then the same drugs; assay type: in vivo; conditions: after macrophage injection; drugs used alone or in combination
Excerpt: 2) Nude mice inoculated with human carcinoma solid tumors are initially treated with cytotoxic drugs (Adriamycin, Etretinate, Taxotere), used alone or in combination.

solid carcinoma = experiment: Mice bearing solid carcinoma: apoptosis-inducing drug plus monocyte derived cells; assay type: in vivo, C57B16 mice; conditions: drug intraperitoneally, 24 h later 0.1 million monocyte derived cells in tumor periphery; seen only after combined treatment
Description: 7) C57B16 mice bearing solid carcinoma are injected intraperitonealy with a drug inducing apoptosis (1 mg mitomycin C or 0.1 mg sodium butyrate). After 24 h, mice are injected with 0.1 million monocyte derived cells in tumor periphery. […] In another protocol, carcinoma cells are treated in vitro with 0.01 mM sodium butyrate, and then submitted to phagocytosis by murine monocyte derived cells.

[2] = test system: 16R-OV1/DDP human ovary cancer cell line; experiment: Survival of cisplatin-resistant ovary cancer cells grown with MAK for 24 hours, then with cisplatin (FIG. 3); assay type: cell-based; conditions: cisplatin alone at maximal dose 10^-3 M
Description: The percentage of tumor cell survival is measured according to the method described in “Feasibility of drug screening with panels of human tumor cell lines using a microculture tetrazolium assay” (Alley M. C., Scudiero D. A., Monks A., et al.; Cancer Res., 1988, 48: 489-501), and is plotted against the dose of cisplatin (abscissa) in the test tube (molar concentration).
FIG. 3 represents the percentage of cellular survival as a function of cisplatin concentration (M).
The curve with hollow circles corresponds to the use of cisplatin alone.
The plain curve corresponds to the use of MAK alone.
The curve with black squares corresponds to the use of the combination of MAK followed by cisplatin.
The curve with hollow triangles corresponds to the theoretical additive curve of a treatment with MAK alone and a treatment with cisplatin alone.
16R-OV1/DDP human ovary cancer cell line was rendered resistant to cisplatinum by continuous exposure to increasing concentrations of cisplatin (Fajac A., et al. Cisplatin induced apoptosis and p.53 gene status in a cisplatin resistant human ovarian carcinoma cell line. Int. J. Cancer 68, 67-74, 1996). The cells are grown at 37° C., 5% CO2 in RPMI 1640 medium in the presence of activated human macrophages (MAK) during 24 hours and then with cisplatin at increasing concentrations. […]

| Structure (SMILES) | effect of second treatment with the same cytotoxic drugs (subcutaneous tumor size) [1] | tumor outcome after combined treatment (solid carcinoma) | further results |
| --- | --- | --- | --- |
| CCOC(=O)/C=C(C)/C=C/C=C(C)/C=C/c1c(C)cc(OC)c(C)c1C [Etretinate] | further antitumoral effect |  |  |
| CC(=O)O[C@@]12CO[C@@H]1C[C@H](O)[C@@]1(C)C(=O)[C@H](O)C3=C(C)[C@@H](OC(=O)[C@H](O)[C@@H](NC(=O)OC(C)(C)C)c4ccccc4)C[C@@](O)([C@@H](OC(=O)c4ccccc4)[C@H]21)C3(C)C [Taxotere] | further antitumoral effect |  |  |
| CCCC(=O)[O-].[Na+] [sodium butyrate] |  | Tumor regression and protection against further tumor challenge |  |
| CO[C@@]12[C@H](COC(N)=O)C3=C(C(=O)C(C)=C(N)C3=O)N1C[C@@H]1N[C@@H]12 [mitomycin C] |  | Tumor regression and protection against further tumor challenge |  |
| COc1cccc2c1C(=O)c1c(O)c3c(c(O)c1C2=O)C[C@@](O)(C(=O)CO)C[C@@H]3O[C@H]1C[C@H](N)[C@H](O)[C@H](C)O1 [Adriamycin] | further antitumoral effect |  |  |
| N.N.[Cl][Pt][Cl] [Cisplatin, cisplatin] |  |  | inhibition of survival [2]: 35% |
